Source: US12265087B2, “Olfactory receptor as microglia marker and use thereof” (DAEGU GYEONGBUK INSTITUTE OF SCIENCE AND TECHNOLOGY, priority 2019, dated 2025)
Changes are numbered by the printed parent chain. Entries after “also recorded” stand apart in the source; their conditions may differ.

Legend:
Olfr110 = biological target: T1, Olfr110 (Mus musculus, UniProt A2RT31); assay: Luciferase assay in Hana3A cells transfected with Olfr110; assay type: cell-based
T1 construct: Full-length odorant receptor genes from mouse and human genomic DNAs were amplified using appropriate primers; Lucy (N); Flag (N); Rho (N); expressed in transfected cells; host or cells: Hana3A cells, co-transfected with RTP1S, pCRELuc and pRL-SV40
T1 sequence (A2RT31 1-317): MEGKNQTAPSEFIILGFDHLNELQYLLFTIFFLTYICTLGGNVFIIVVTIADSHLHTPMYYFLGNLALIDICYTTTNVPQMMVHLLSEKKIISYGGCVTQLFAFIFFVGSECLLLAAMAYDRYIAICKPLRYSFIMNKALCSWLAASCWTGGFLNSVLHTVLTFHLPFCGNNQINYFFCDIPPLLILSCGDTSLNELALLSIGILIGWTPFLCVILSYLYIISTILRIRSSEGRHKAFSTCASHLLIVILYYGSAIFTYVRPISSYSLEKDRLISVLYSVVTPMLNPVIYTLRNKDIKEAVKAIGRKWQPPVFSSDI
Method: (§1) A Dual-Glo luciferase assay system (#E2940; Promega) was used for OR ligand screening. More specifically, Hana3A cells were seeded in white polystyrene 96-well plates (#353296; BD Biosciences) one day before transfection. pCRELuc (1 μg; #219076; Agilent Technologies), pRL-SV40 (1 μg; #E2231; Promega), RTP1S (1 μg), and OR (6 μg; or Mock) vectors were transfected for 24 hours in each plate. Analysis was performed using Lipofectamine 2000 (#11668-019; Thermo Fisher Scientific) according to the manufacturer's protocols. Transfected cells were stimulated at 37° C. for 4 hours with various concentrations of diluted odorants in a CD293 medium (#11913-019; Thermo Fisher Scientific). The activity of luciferase was normalized to that of Renilla luciferase. Luminescence was measured using a SpectraMax L microplate reader (Molecular Devices).

Olfr111 = assay: Luciferase assay in Hana3A cells transfected with Olfr111; assay type: cell-based, mouse; settings: Hana3A cells
Method: as §1

Olfr110 F104W mutation = biological target: T2, Olfr110 F104W mutation (Mus musculus, UniProt A2RT31, F104W); assay: Luciferase assay with site-directed Olfr110 mutants; assay type: cell-based; settings: 2-PF treatment
T2 construct: Full-length odorant receptor genes from mouse and human genomic DNAs were amplified using appropriate primers; Lucy (N); Flag (N); Rho (N); expressed in transfected cells; host or cells: Hana3A cells
T2 sequence (A2RT31 1-317 F104W): T1 sequence (A2RT31 1-317) with F104W
Excerpt: Specific mutant vectors of the Olfr110 structure were generated using PfuUltra High-Fidelity DNA polymerase (#600380; Agilent Technologies). All mutant vectors (F102W; F104W; Y252F; Y259F; F102W/F104W; Y252F/Y259F; F102W/Y252F/Y259F; F104W/Y252F/Y259F; F102W/F104W/Y252F/Y259F) were sequenced in forward and reverse directions (Macrogen).

primary microglia = assay: Phagocytosis of FITC-dextran by primary microglia (FACS); assay type: cell-based, mouse; settings: 100, 300 and 500 μM
Method: Primary microglia were seeded in 24-well plates (5×10^5 cells/well) and incubated for 24 hours. Cells were preincubated with 2-PF or Sup for 30 minutes, incubated with FITC-dextran (1 mg/ml, 20 mg/ml in PBS; #FD70S; Sigma Aldrich) in serum-free DMEM at 37° C. for […], and washed with PBS at 4° C. The cells were detached with 0.25% trypsin (#15090-046; Thermo Fisher Scientific) in PBS, and the detached cells were analyzed with FACS Accuri™ C6 (BD Biosciences). Mean fluorescence intensity (MFI) was calculated by integrating fluorescence histograms under each condition using the software. A phagocytosis index was defined as MFI, normalized against an untreated group.

microglia = assay: Ex vivo phagocytosis of microglia in brain slices (time-lapse confocal imaging); assay type: cell-based, mouse; settings: brain slices of CX3CR1 GFP/+ mice
Method: In this experiment, to examine the phagocytotic action of microglia, the brain of a 9-week-old male CX3CR1^GFP/+ mouse was sliced to a thickness of 150 μm using a vibratome (Leica VT1200), and stored in a ice-cooled artificial cerebrospinal fluid (aCSF: 120 mM NaCl, 25 mM NaHCO3, 1.25 mM NaH2PO4, 5 mM KCl, 1 mM CaCl2, 1 mM MgSO4, […], pH7.4). Afterwards, the sliced brain was incubated to remove cell debris. Oxygen-treated aCSF was pretreated in a perfusion chamber at 37° C. for 2 hours. Subsequently, before incubation, the sliced brain was incubated with 500 μl of aCSF containing 9.10×10^7 microspheres (360/407 […]; #17458; Polysciences), and covered with a customized nylon grid. Time lapse videos were recorded every minute for 92 minutes using a confocal microscope. The number of phagocytosing microglia was counted from the images.

For `CCCCCc1ccco1` [2-PF, 2-pentylfuran], the “mode of action at Olfr110” value (Olfr110) was “agonist”, the “reactivity with Olfr110 (relative luciferase activity)” value (Olfr110; Hana3A cells) was “selective ligands; also recorded: showed the highest reactivity with Olfr110” and the “reactivity with Olfr111 (relative luciferase activity)” value (Olfr111) was “selective ligands; also recorded: showed reactivity”. For the same compound, the “luciferase activity of Olfr110 F104W mutant” value (Olfr110 F104W mutation) was “completely lost”, the phagocytosis (primary microglia) was “significantly increased in a concentration-dependent manner” and the “activity of phagocytosis of microglia ex vivo” value (microglia) was “increased”.
